Reference: publication PMC12607897, “Inhibition of HIV-1 replication by primer RNA packaging inhibitors” (mBio, 2025)

Key:
[1] = target: T1, mLysRS:IN interaction (human mLysRS, HIV-1 IN) (UniProt P12497+Q15046); experiment: HTRF assay of mLysRS:IN interaction; type: binding, human / HIV-1; details: HTRF; mLysRS 1.5 nM dimer, IN 25 nM dimer; read-out: half-maximal inhibitory concentration (IC50) in the mLysRS:IN assay
T1 construct: made in house
Procedure: Fig 1 Determination of the half-maximal inhibitory concentration (IC50) of the drugs in the mLysRS:IN binding assay. The binding of mLysRS to IN (red) or p38 (blue) was monitored in the HTRF assay in the presence of increasing drug concentrations (9–1,000 µM). The experimental values (symbols) were fitted (curves) to the equation Y = Ymin + {(Ymax − Ymin)/[1 + (X/IC50)^n]}, where n is the Hill coefficient. […] Proteins were isolated as described previously ([4]). Several batches of IN were used throughout this study. […] The molecules are dissolved in DMSO at a final concentration of 10 mM. After a 1 h incubation on ice, antibodies (Cisbio) directed to the His-tag and conjugated with Eu^3+ cryptate (Cisbio #61HISKLB) and the HA-tag conjugated with XL665 (Cisbio #610HAXLB) were added, and incubation was continued for 30 min. After the addition of 50 mM KF, fluorescence of Eu^3+ cryptate and of XL665 was recorded at 620 nm (I620) and 665 nm (I665), respectively, following excitation of Eu^3+ cryptate at 317 nm, in an Infinite M1000 PRO microplate reader (TECAN). The results were expressed as the ratio of I665/I620.

[2] = tested on: HIV-1 NL4-3 virus produced in MT4 cells; experiment: infectivity of virus particles by the CPRG method in HeLa P4 cells; type: cell-based; details: viruses recovered after MT4 cells were exposed to 10 µM drugs
Procedure: We used the CPRG method developed in HeLa P4 cells grown in 96-well plates to measure the infectivity of virus particles, as low levels of virus were recovered after exposure of infected MT4 cells to different drug concentrations. In this assay, expression of the LacZ gene is under the control of the HIV-1 LTR, and its level of trans-activation correlates with the level of expression of HIV-1 Tat. HeLa P4 cells were incubated with normalized amounts of virus as measured by the P24 assay, and the expression of β-galactosidase was determined by the CPRG assay (Fig. 5).
Fig 5 Infectivity of newly formed HIV-1 particles produced in the presence of drugs. MT4 cells were infected with the NL4-3 virus. […] The infectivity of HIV-1 viruses was determined by the CPRG method. […]
Replication of the NL4-3 virus was determined either by the ELISA technique or in HeLa-P4 cells by the CPRG method as described previously ([29]). These are HeLa CD4 LTR-lacZ cells in which the expression of lacZ is induced by the HIV transactivator Tat, allowing precise quantification of the infectivity of HIV-1. The viral titer was determined by quantifying β-galactosidase activity in HeLa-P4 lysates in a colorimetric assay based on the cleavage of chlorophenol red-β-D-galactopyranoside (CPRG) by β-galactosidase. The cytotoxicity is evaluated by the MTT assay.

T1 sequence (Q15046 other isoform, or with tags, fused parts or gaps, other chains not shown): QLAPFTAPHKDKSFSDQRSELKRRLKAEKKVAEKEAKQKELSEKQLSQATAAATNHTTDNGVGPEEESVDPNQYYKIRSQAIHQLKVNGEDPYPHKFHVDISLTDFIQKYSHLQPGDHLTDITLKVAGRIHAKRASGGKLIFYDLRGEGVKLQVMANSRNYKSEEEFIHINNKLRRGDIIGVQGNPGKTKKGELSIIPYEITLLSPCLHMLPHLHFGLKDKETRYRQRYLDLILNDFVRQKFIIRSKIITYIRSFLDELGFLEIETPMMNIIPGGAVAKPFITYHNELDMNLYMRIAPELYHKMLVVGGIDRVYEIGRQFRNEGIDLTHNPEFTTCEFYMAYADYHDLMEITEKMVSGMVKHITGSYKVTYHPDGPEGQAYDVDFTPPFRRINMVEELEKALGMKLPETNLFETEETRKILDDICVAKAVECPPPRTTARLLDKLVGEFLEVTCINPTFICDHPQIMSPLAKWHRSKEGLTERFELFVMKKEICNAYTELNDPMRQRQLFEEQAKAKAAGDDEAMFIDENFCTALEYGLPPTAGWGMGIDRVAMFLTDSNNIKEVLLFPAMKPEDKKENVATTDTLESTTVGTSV

## CN1CCCC(n2nc(Cc3ccc(Cl)cc3)c3ccccc3c2=O)CC1 (centres unmarked) [azelastine]
[1]
  IC50: 340 ± 50 µM
[2]
  infectivity of viruses compared with wild-type viruses: less than 4%
